Data reported in patent US8822449B2, “Substituted aminoindanes and analogs thereof, and the pharmaceutical use thereof” (Sanofi, priority 2008, dated 2014).

target: T1, sodium-proton exchanger of subtype 3 (NHE3) (Homo sapiens, UniProt P48764); test: Recovery of intracellular pH (pHi) after acidification in LAP1 cells stably expressing NHE3 (BCECF fluorescence, FLIPR); assay type: cell-based; settings: LAP1 cells stably expressing NHE3; pH recovery after acidification; range 1 is % inhibition at 10 μM; read-out: Activity range (inhibitory effect on NHE3)
T1 construct: expressed in transfected cells
T1 sequence (P48764 26-834): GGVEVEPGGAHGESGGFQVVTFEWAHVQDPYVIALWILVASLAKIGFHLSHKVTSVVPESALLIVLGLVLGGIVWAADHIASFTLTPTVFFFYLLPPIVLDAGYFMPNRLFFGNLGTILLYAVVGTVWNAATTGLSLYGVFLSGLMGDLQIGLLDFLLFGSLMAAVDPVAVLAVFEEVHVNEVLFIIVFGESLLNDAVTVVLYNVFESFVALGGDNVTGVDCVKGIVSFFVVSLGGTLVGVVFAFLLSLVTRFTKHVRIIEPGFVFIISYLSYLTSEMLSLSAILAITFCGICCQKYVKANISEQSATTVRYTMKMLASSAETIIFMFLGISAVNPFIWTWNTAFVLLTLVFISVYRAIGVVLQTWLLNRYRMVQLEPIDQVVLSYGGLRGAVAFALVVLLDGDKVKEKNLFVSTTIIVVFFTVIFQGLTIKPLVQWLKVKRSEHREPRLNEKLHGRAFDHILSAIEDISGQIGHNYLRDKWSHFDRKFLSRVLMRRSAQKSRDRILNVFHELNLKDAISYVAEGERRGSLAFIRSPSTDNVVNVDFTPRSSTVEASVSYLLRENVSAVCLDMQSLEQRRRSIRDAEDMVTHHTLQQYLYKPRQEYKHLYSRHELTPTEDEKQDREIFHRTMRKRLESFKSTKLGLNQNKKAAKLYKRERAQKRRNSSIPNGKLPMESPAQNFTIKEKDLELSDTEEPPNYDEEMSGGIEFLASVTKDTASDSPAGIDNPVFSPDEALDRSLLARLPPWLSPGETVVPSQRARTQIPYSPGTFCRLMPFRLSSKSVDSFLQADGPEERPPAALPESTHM

SMILES | inhibition at 10 µM [%] | IC50 [µM]
CC(C)[C@H]1COC(=O)N1c1ccc(Cl)c(O[C@H]2c3cc(Cl)cc(F)c3C[C@@H]2N2CC[C@@H](O)C2)c1 [Example 211, (S)-3-{4-chloro-3-[(1S,2S)-6-chloro-4-fluoro-2((R)-3-hydroxypyrrolidin-1-yl)indan-1-yloxy]phenyl}-4-isopropyloxazolidin-2-one] | 20 to 50 | 
CS(=O)(=O)c1ccc(O[C@H]2c3ccccc3C[C@@H]2N2CCn3cnnc3C2)cc1 (racemic) [Example 590, 7-[rac-trans-(1,2)-1-(4-methanesulfonylphenoxy)indan-2-yl]-5,6,7,8-tetrahydro-[1,2,4]triazolo[4,3-a]pyrazine] | 20 to 50 | 
N[C@H]1CCCN([C@@H]2Cc3ccccc3[C@H]2Oc2cccc3ncccc23)C1 (racemic) [Example 194, (S)-1-[rac-trans-(1,2)-1-(quinolin-5-yloxy)indan-2-yl]piperidin-3-ylamine] |  | 1 to 10
CN(C)C(=O)Cc1ccc(O[C@H]2c3ccccc3CC[C@@H]2N2CCC[C@H](N)C2)cc1 (racemic) [Example 382, 2-{4-[rac-trans-(1,2)-2-((S)-3-aminopiperidin-1-yl)-1,2,3,4-tetrahydronaphthalen-1-yloxy]phenyl}-N,N-dimethylacetamide] | 20 to 50 | 
Cc1cc(-n2c(C)nnc2C)ccc1O[C@H]1c2cc(Cl)cc(Cl)c2C[C@@H]1N1CC[C@@H](O)C1 [Example 131, (R)-1-{trans-(1S,2S)-4,6-dichloro-1-[4-(3,5-dimethyl-[1,2,4]triazol-4-yl)-2-methylphenoxy]indan-2-yl}pyrrolidin-3-ol] |  | < 1
Nc1ccc2c(O[C@H]3c4ccccc4CC[C@@H]3N3CCC[C@H](N)C3)cccc2c1 (racemic) [Example 189, (S)-1-[rac-trans-(1,2)-1-(6-aminonaphthalen-1-yloxy)-1,2,3,4-tetrahydronaphthalen-2-yl]piperidin-3-ylamine] |  | 1 to 10
NCC1CCN([C@@H]2Cc3ccccc3[C@H]2Oc2ccc3[nH]cc(CC(N)=O)c3c2)CC1 (racemic) [Example 388, 2-{5-[rac-trans-(1,2)-2-(4-aminomethylpiperidin-1-yl)indan-1-yloxy]-1H-indol-3-yl}acetamide] |  | 1 to 10
CS(=O)(=O)c1ccc(O[C@H]2c3c(Cl)cc(Cl)cc3C[C@@H]2N2CCNCC2)cc1 (racemic) [Example 287, 1-[rac-trans-(1,2)-5,7-dichloro-1-(4-methanesulfonylphenoxy)indan-2-yl]piperazine] |  | < 1
CS(=O)(=O)c1ccc(O[C@@H]2c3cc(Cl)cc(F)c3C[C@H]2N2CCC[C@@H](N)C2)cc1 (racemic) [Example 93, (R)-1-[rac-trans-(1,2)-6-chloro-4-fluoro-1-(4-methanesulfonylphenoxy)indan-2-yl]piperidin-3-ylamine] |  | < 1
CC(=O)Nc1cccc(O[C@H]2c3ccccc3C[C@@H]2N2CCCCC2)c1 [Example 663, N-[3-(trans-(1S,2S)-2-piperidin-1-ylindan-1-yloxy)phenyl]acetamide] |  | < 1
Cc1nn(C)c(C)c1-c1ccc(O[C@H]2c3cc(Cl)ccc3C[C@@H]2N2CC[C@@H](O)C2)cc1 [Example 140, (R)-1-{trans-(1S,2S)-6-chloro-1-[4-(1,3,5-trimethyl-1H-pyrazol-4-yl)phenoxy]indan-2-yl}pyrrolidin-3-ol] |  | 1 to 10
O=C1CNC(=O)N1c1ccc(F)c(O[C@H]2c3cc(Cl)cc(Cl)c3C[C@@H]2N2CC[C@@H](O)C2)c1 [Example 417, 3-{3-[(1S,2S)-4,6-dichloro-2-((R)-3-hydroxypyrrolidin-1-yl)indan-1-yloxy]-4-fluorophenyl}imidazolidine-2,4-dione] |  | 1 to 10
O=S(=O)(c1ccc(O[C@H]2c3cc(Cl)cc(Cl)c3C[C@@H]2N2CC[C@@H](O)C2)cc1)N1CCOCC1 [Example 744, (R)-1-{trans-(1S,2S)-4,6-Dichloro-1-[4-(morpholine-4-sulfonyl)-phenoxy]-indan-2-yl}-pyrrolidin-3-ol] |  | 1 to 10
Cc1cc(O[C@H]2c3cc(Cl)cc(F)c3C[C@@H]2N2CCNCC2)ccc1S(=O)(=O)C(F)(F)F (racemic) [Example 290, 1-[rac-trans-(1,2)-6-chloro-4-fluoro-1-(3-methyl-4-trifluoromethanesulfonylphenoxy)indan-2-yl]piperazine] | 20 to 50 | 
CC(=O)Nc1cccc(O[C@H]2c3ccccc3CC[C@@H]2N2CCC[C@@H](N)C2)c1 (racemic) [Example 676, N-{3-[rac-trans-(1,2)-2-((R)-3-aminopiperidin-1-yl)-1,2,3,4-tetrahydronaphthalen-1-yloxy]phenyl}acetamide] |  | 1 to 10
N[C@@H]1CCCN([C@@H]2Cc3ccccc3[C@H]2Oc2ccc(F)cc2F)C1 (racemic) [Example 33, (R)-1-[rac-trans-(1,2)-1-(2,4-difluorophenoxy)indan-2-yl]piperidin-3-ylamine] |  | 1 to 10
N#Cc1ccc(O[C@@H]2c3ccccc3C[C@H]2N2CCC(CN)CC2)c(Cl)c1 (racemic) [Example 547, 4-[rac-trans-(1,2)-2-(4-aminomethylpiperidin-1-yl)indan-1-yloxy]-3-chlorobenzonitrile] |  | 1 to 10
CC(=O)Nc1cccc(O[C@H]2c3ccccc3C[C@@H]2N2CCC[C@@H](NCCF)C2)c1 [Example 631, N-(3-{trans-(1S,2S)-2-[(R)-3-(2-fluoroethylamino)piperidin-1-yl]indan-1-yloxy}phenyl)-acetamide] |  | < 1
Cn1ccn(-c2ccc(Cl)c(O[C@H]3c4cc(Cl)cc(F)c4C[C@@H]3N3CC[C@@H](O)C3)c2)c1=O [Example 339, 1-{4-chloro-3-[(1S,2S)-6-chloro-4-fluoro-2-((R)-3-hydroxypyrrolidin-1-yl)indan-1-yloxy]phenyl}-3-methyl-1,3-dihydroimidazol-2-one] |  | < 1
Cc1nnc(C)n1-c1ccc(O[C@H]2c3cc(Cl)ccc3C[C@@H]2N2CCCC2)cc1 [Example 502, 4-[4-(trans-(1S,2S)-6-chloro-2-pyrrolidin-1-ylindan-1-yloxy)phenyl]-3,5-dimethyl-4H-[1,2,4]triazole] |  | < 1
CN1C[C@@H]2CN([C@H]3Cc4c(Cl)cc(Cl)cc4[C@@H]3Oc3ccc(S(C)(=O)=O)cc3)C[C@@H]2C1 [Example 8, 2-[trans-(1S,2S)-4,6-dichloro-1-(4-methanesulfonylphenoxy)indan-2-yl]-5-methyloctahydropyrrolo[3,4-c]pyrrole] |  | < 1
CCN(CC)[C@@H]1Cc2ccccc2[C@H]1Oc1cccc(NC(C)=O)c1 (racemic) [Example 637, N-[3-(rac-trans-(1,2)-2-diethylaminoindan-1-yloxy)phenyl]acetamide] |  | 1 to 10
Cc1nnc(C)n1-c1ccc(O[C@H]2c3cc(Cl)cc(F)c3C[C@@H]2N2CC[C@@H](O)C2)c(F)c1 [Example 142, (R)-1-{trans-(1S,2S)-6-chloro-1-[4-(3,5-dimethyl-[1,2,4]triazol-4-yl)-2-fluorophenoxy]-4-fluoroindan-2-yl}pyrrolidin-3-ol] |  | < 1
NC(=O)c1cc(Cl)ccc1O[C@H]1c2cc(Cl)cc(Cl)c2C[C@@H]1N1CCC1 [Example 353, 2-((1S,2S)-2-azetidin-1-yl-4,6-dichloroindan-1-yloxy)-5-chlorobenzamide] | 20 to 50 | 
N#Cc1ccc(CO[C@H]2c3cc(Cl)cc(Cl)c3C[C@@H]2N2CC[C@@H](O)C2)c(F)c1 [Example 482, 4-[(1S,2S)-4,6-dichloro-2-((R)-3-hydroxypyrrolidin-1-yl)indan-1-yloxymethyl]-3-fluorobenzonitrile] | 20 to 50 | 
COC[C@@H]1CCCN1[C@H]1Cc2c(Cl)cc(Cl)cc2[C@@H]1Oc1ccc(-n2c(C)nnc2C)cc1 [Example 562, 4-{4-[trans-(1S,2S)-4,6-dichloro-2-((S)-2-methoxymethylpyrrolidin-1-yl)indan-1-yloxy]phenyl}-3,5-dimethyl-4H-[1,2,4]triazole] |  | 1 to 10
N[C@H]1CCCN([C@H]2CCc3ccccc3[C@@H]2Oc2ccc(Cl)nc2)C1 (racemic) [Example 190, (S)-1-[rac-trans-(1,2)-1-(6-chloropyridin-3-yloxy)-1,2,3,4-tetrahydronaphthalen-2-yl]piperidin-3-ylamine] | 20 to 50 | 
CC(=O)Nc1cccc(OC2c3ccccc3CC2N2CC[C@@H](O)C2)c1 (mixture of isomers) [Example 681, N-{3-[rac-trans-(1,2)-2-((R)-3-hydroxypyrrolidin-1-yl)indan-1-yloxy]phenyl}acetamide] |  | 1 to 10
CS(=O)(=O)c1ccccc1O[C@H]1c2cc(Cl)cc(Cl)c2C[C@@H]1N1CCNCC1 [Example 246, 1-[(1S,2S)-4,6-dichloro-1-(2-methanesulfonylphenoxy)indan-2-yl]piperazine] |  | 1 to 10
CS(=O)(=O)c1ccc(O[C@H]2c3cc(F)cc(Cl)c3C[C@@H]2N2CCCC2)cc1 (racemic) [Example 284, 1-[rac-trans-(1,2)-4-chloro-6-fluoro-1-(4-methanesulfonylphenoxy)indan-2-yl]pyrrolidine] |  | 1 to 10
